These molecules were tested on rabbit skeletal myofibrils (fast skeletal myofibrils) (assay: Activation of fast skeletal myofibrils (PUMA assay, PK/LDH-coupled ATPase at pCa25)). Conditions: AC1.4 determined according to the procedure of Example 39; reported as class symbols.
Assay type: biochemical
Outline: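 Detergent-washed rabbit psoas myofibrils (~90% fast fibres, calcium-regulated) assayed at calcium giving 25% of maximal ATPase rate (pCa25). ADP turnover coupled via pyruvate kinase/lactate dehydrogenase to NADH oxidation, read at 340 nm. Buffer 12 mM PIPES, 2 mM MgCl2, 1 mM DTT, pH 6.8; AC1.4 values derived.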

| Mean AC1.4 | Structure (SMILES) |
| --- | --- |
| B (B=1-10 uM) | CC(C)(CNc1ccc(-c2cccc(C(=O)N3CCOCC3)c2)nn1)c1ccc(F)cc1 [3-(6-{[2-(4-fluorophenyl)-2-methylpropyl]amino}pyridazin-3-yl)phenyl morpholin-4-yl ketone] |
| C (C=10-20 uM) | COC(=O)c1ccc(NCC(C)(C)c2ccc(F)cc2)nn1 [Methyl 6-(2-(4-fluorophenyl)-2-methylpropylamino)pyridazine-3-carboxylate] |
| B (B=1-10 uM) | Cc1cc(-c2cccc(C(N)=O)c2)nnc1NCC(C)(C)c1ccc(F)cc1 [3-(6-{[2-(4-fluorophenyl)-2-methylpropyl]amino}-5-methylpyridazin-3-yl)benzamide] |

Same assay, conditions: median AC1.4 class, procedure of Example 39

| Mean AC1.4 | Structure (SMILES) |
| --- | --- |
| B (B=1-10 uM) | NC(=O)c1nc(-c2ccc(NCC3(c4ncccc4F)CCC3)nn2)no1 [3-[6-({[(3-fluoro-2-pyridyl)cyclobutyl]methyl}ami-no)pyridazin-3-yl]-1,2,4-oxadiazole-5-carboxamide] |
| D (D=>20 uM) | NC(=O)c1coc(-c2ccc(NCC3(c4ncccc4F)CCC3)nn2)n1 |
| B (B=1-10 uM) | O=C(O)c1ccc(-c2ccc(NCC3(c4ncccc4F)CCC3)nn2)s1 [5-[6-({[(3-fluoro-2-pyridyl)cyclobutyl]methyl}ami-no)pyridazin-3-yl]thiophene-2-carboxylic acid] |
| C (C=10-20 uM) | CC(C)(Nc1ccc(-c2ccc(C(N)=O)cc2)nn1)c1ccccc1 [4-{6-[(1-methyl-1-phenylethyl)amino]pyridazin-3-yl}benzamide] |
| B (B=1-10 uM) | Fc1ccc(C2(Nc3ccc(-c4ccncc4)nn3)CCC2)cc1 [[(4-fluorophenyl)cyclobutyl](6-(4-pyridyl)pyridazin-3-yl)amine] |
| B (B=1-10 uM) | NC(=O)c1cccc(-c2ccc(NC3(c4cccc(F)c4)CCC3)nn2)c1 |
| A (A=<1 uM) | Fc1cccnc1C1(CNc2ccc(-c3ncc(-c4cc[nH]n4)s3)nn2)CCC1 [{[(3-fluoro(2-pyridyl))cyclobutyl]methyl}[6-(5-pyrazol-3-yl(1,3-thiazol-2-yl))pyridazin-3-yl]amine] |
| C (C=10-20 uM) | O=C(c1cnc(-c2ccc(NCC3(c4ncccc4F)CCC3)nn2)s1)N1CCOCC1 [2-[6-({[(3-fluoro(2-pyridyl))cyclobutyl]methyl}ami-no)pyridazin-3-yl](1,3-thiazol-5-yl) morpholin-4-yl ketone] |
| A (A=<1 uM) | Fc1ccc(C2(Nc3ccc(-c4ccc5[nH]ncc5c4)nn3)CCC2)cc1 [(6-(1H-indazol-5-yl)pyridazin-3-yl)[(4-fluorophenyl)cyclobutyl]amine] |

Same assay, conditions: median AC1.4 reported as class; procedure of Example 39

| Mean AC1.4 | Structure (SMILES) |
| --- | --- |
| A (A=<1 uM) | O=C(NCc1cnc(-c2ccc(NCC3(c4ncccc4F)CCC3)nn2)s1)[C@@H]1CCN1 [((2S)azetidin-2-yl)-N-({2-[6-({[(3-fluoro(2-pyridyl))cyclobutyl]methyl}ami-no)pyridazin-3-yl](1,3-thiazol-5-yl)}methyl)carboxamide] |
| C (C=10-20 uM) | COc1c(C#N)cccc1-c1ccc(NC[C@]2(c3ncccc3F)C[C@H](F)C2)nn1 [3-[6-({[3-fluoro-1-(3-fluoro(2-pyridyl))cyclobutyl]methyl}ami-no)pyridazin-3-yl]-2-methoxybenzenecarbonitrile] |
| D (D=>20 uM) | CS(=O)(=O)N1CCN(Cc2cnc(-c3ccc(NCC4(c5ncccc5F)CCC4)nn3)s2)CC1 [1-({2-[6-({[(3-fluoro(2-pyridyl))cyclobutyl]methyl}ami-no)pyridazin-3-yl](1,3-thiazol-5-yl)}methyl)-4-(methylsulfonyl)piperazine] |
| C (C=10-20 uM) | N#Cc1nc[nH]c1NC(=O)c1ccc(NCC2(c3ncccc3F)CCC2)nn1 [N-(4-cyanoimidazol-5-yl)[6-({[(3-fluoro(2-pyridyl))cyclobutyl]methyl}ami-no)pyridazin-3-yl]carboxamide] |
| D (D=>20 uM) | NC1CCc2nc(-c3ccc(NCC4(c5ncccc5F)CCC4)nn3)sc2C1 (centres unmarked) [[6-(6-amino(4,5,6,7-tetrahydrobenzothiazol-2-yl))pyridazin-3-yl]{[(3-fluoro(2-pyridyl))cyclobutyl]methyl}amine] |

— patent US10076519B2 (CYTOKINETICS, INC., priority 2010, dated 2018)
